Measurements reported in patent US10226466B2, “Methods of treating fibrosis” (Pharmacyclics LLC, priority 2014, dated 2019).
Where “and” joins values, the source holds several entries; their conditions need not be identical. Equal entries are not always repeated. Entries after “also recorded” stand apart in the source; their conditions may differ.

Assays:
[1] = test system: p53^ER/ER;LSLKRas^G12D;pdx1-Cre mice; test: Histology, immunohistochemistry and Picrosirius Red collagen staining of pancreata from PDAC model mice treated for 4 weeks; format: in vivo, mouse; conditions: for Collagen deposition (Picrosirius Red Staining): intraperitoneal daily injection of 10 mg per kg for 4 weeks from 8 weeks of age, compared to vehicle-treated control
Protocol: (§1) For immunohistochemical analyses, tissue samples were fixed overnight in neutral pH-buffered formalin, embedded in paraffin and sectioned (5 μm). Sections were then deparaffinized, rehydrated and microwaved for 1 min in 0.01 M citrate buffer (pH 6.0) for antigen retrieval. Primary antibodies (rat monoclonal anti-CD11b (clone M1/70), eBioscience; rabbit monoclonal anti-Ki67 (clone SP6), Neomarkers) were applied for 2 h in blocking buffer (2.5% BSA, 5% goat serum and 0.3% Triton X-100 in PBS), followed by Vectastain ABC kit and DAB reagents (Vector Laboratories). Images were obtained with an Axiovert S100 TV inverted fluorescence microscope (Zeiss) and Open Lab 3.5.1 software, or with an Axiovert 100 inverted microscope (Zeiss) equipped with a Hamamatsu Orca digital camera. The mast cells were identified using 1% toluidine blue dissolved in ethanol. Picrosirius Red stain kit (Polysciences, Inc.) was used to stain for collagen Types I and III according to manufacturer instructions.
For all experiments, 8 week old male and female p53^ER/ER;LSLKRas^G12D;pdx1-Cre mice of mixed C57BL/6-FVB/N background were randomized into two groups: treated and control. Ibrutinib (0.16 mg/mL with 1% 2-Hydroxypropyl-beta-cyclodextrin (HP-β-CD)) was added to the drinking water of treated animals, and control animals received water containing vehicle only (1% HP-β-CD). Gemcitabine (75 mg/kg) was injected intraperitoneally twice a week for 3 weeks followed by a 1-week rest period. Sodium cromoglycate ([…]) was dissolved in saline solution and injected intraperitoneally, and control mice were treated with vehicle only. Endpoint criteria were defined as 20% body weight loss in addition to general morbidity and lethargy caused by tumor burden. Mice euthanized due to intestinal metaplasia or mucocutaneous papillomas caused by extrapancreatic KRAS^G12D expression were excluded from the survival study.
A p53^ER/ER;LSLKRas^G12D;pdx1-Cre mouse model that harbors a Cre-activated KRasG12D allele inserted into the endogenous KRas locus combined with pancreas-specific PDX-1-driven Cre recombinase activity was used. The disruption of Trp53 signaling in combination with KRas mutation leads to rapid tumorigenesis and histopathological features typical of human pancreatic adenocarcinoma within only 8 weeks. At this stage the animals were treated with ibrutinib, at a dose of 25 mg/Kg/day added to their drinking water, or with vehicle control. The animals were euthanized 4 weeks later and their pancreata harvested for analysis. […] In stained, vehicle-treated mast cells, the cell borders were broken and the content of their granules were released. […] Reasons for this phenomenon can include the fact that several chemokines produced by mast cells, such as IL6, are known to be potent stimulants for monocytic cell migration and macrophage activation, so that inhibiting mast cells could prevent their recruitment.
In order to verify that this effect on fibrosis was specifically due to mast cell interference, two independent control experiments were performed. In the first experiment, sodium cromoglycate (cromolyn), a well-characterized blocker of mast cell degranulation and inflammogen release was used. The p53^ER/ER;LSLKRas^G12D ,pdx1-Cre mice were treated intraperitoneally (i.p.) with a daily injection of 10 mg per kg (bodyweight) of cromolyn, starting at 8 weeks of age. The animals were euthanized 4 weeks later and their pancreata analysed.

[2] = test system: p53^ER/ER;LSLKRas^G12D;pdx1-Cre mice; test: Flow cytometry of single cell suspensions of PDAC tumors from treated mice; format: in vivo, mouse; conditions: ibrutinib 25 mg/Kg/day in drinking water, 4 weeks
Protocol: Following resection, PDAC tumors isolated from PBS-perfused mice were immediately placed in ice-cold PBS, followed by manual mincing using scissors and a 20 min enzymatic digestion with 1.25 mg/mL collagenase type IV (Roche), 0.1% trypsin inhibitor, and 50 U/ml DNase I (Roche) in serum-free Dulbecco's Modified Eagle's Medium (DMEM) (Invitrogen) at 37° C. with continuous stirring. Single cell suspensions were then prepared by passing tissue through 70 μm nylon strainers (BD Biosciences). Cells were incubated for 30 min at 4° C. with rat anti-mouse CD16/CD32 mAb (1:250, clone 2.4G2, BD Bioscience) in PBS, which also contained Live/Dead Aqua stain (1:250, Invitrogen) to differentiate between viable and dead cells. Cells were then incubated for 30 min in PBS containing 1.0% BSA (Sigma) and 2 mM EDTA with 100 μl of fluorophore-conjugated anti-mouse antibodies (dilution; clone): PE-Cy7-CD45 (1:800; 30-F11), PerCp-Cy5.5-CD3e (1:400; 145-2C11), PerCp-Cy5.5-CD19 (1:200; 6D5), PerCp-Cy5.5-CD49b (1:400; DX5), Alexa 700-CD11b (1:400; M1/70), APC780-CD11c (1:200; N418), eFluor450-MHCII (1:800; M5/114.15.2), APC-Ly6C (1:800; HK1.4), PE-Ly6G (1:400; 1A8), and PE-Cy5-F4/80 (1:400; BM8) (eBioscience or Biolegend). Cells were then washed once in PBS containing 1.0% BSA (Sigma) and 2 mM EDTA, followed by fixation with BD Cytofix for 30 min on ice. […]

[3] = test system: subcutaneous xenografts of a patient derived tumor in NOD/SCID mice; test: Collagen deposition in subcutaneous xenografts of a patient-derived tumor (PDX) in NOD/SCID mice; format: in vivo, mouse; conditions: NOD/SCID mice with patient-derived xenograft, ibrutinib-treated vs untreated
Protocol: as §1
NOD/SCID mice were purchased from Charles River Laboratory. The anonymized human sample employed was part of the tissue biological material of the University Hospital Vall d'Hebron. […] Tumor size was evaluated weekly by caliper measurements and tumor volume calculated using the following formula: […]

[4] = test system: p53^ER/ER;LSLKRas^G12D;pdx1-Cre mice; test: Survival study in PDAC model mice (Kaplan-Meier, Log-rank test); format: in vivo, mouse; conditions: treatment starting from 8 weeks of age; Log-rank p value=0.015
Protocol: For all experiments, 8 week old male and female p53^ER/ER;LSLKRas^G12D;pdx1-Cre mice of mixed C57BL/6-FVB/N background were randomized into two groups: treated and control. Ibrutinib (0.16 mg/mL with 1% 2-Hydroxypropyl-beta-cyclodextrin (HP-β-CD)) was added to the drinking water of treated animals, and control animals received water containing vehicle only (1% HP-β-CD). Gemcitabine (75 mg/kg) was injected intraperitoneally twice a week for 3 weeks followed by a 1-week rest period. Sodium cromoglycate (10/kg) was dissolved in saline solution and injected intraperitoneally, and control mice were treated with vehicle only. Endpoint criteria were defined as 20% body weight loss in addition to general morbidity and lethargy caused by tumor burden. Mice euthanized due to intestinal metaplasia or mucocutaneous papillomas caused by extrapancreatic KRAS^G12D expression were excluded from the survival study.
Statistical analysis was carried out by two-tailed Mann-Whitney test (for IHC counts), two tailed unpaired t-test (for flow cytometry data) and Log-Rank test (for Kaplan-Meier survival curves). […] Statistical analysis was performed using GraphPad Prism 4.
Two independent survival experiments were undertaken to test the therapeutic impact of ibrutinib alone and to assess ibrutinib in combination with gemcitabine.

mast cell = conditions: mouse model of insulinoma; background statement; cited from earlier work

| SMILES | Collagen deposition (Picrosirius Red Staining) [1] | Collagen deposition (Picrosirius Red Staining) ([1]; listed as sodium cromoglicate) | Ki67 positive (proliferating) cells in pancreata / proliferation rate ([1]; ibrutinib 25 mg/Kg/day in drinking water for 4 weeks from 8 weeks of age, IHC, vehicle control 67.8%, p value=0.0016) | Mast cell degranulation in tumor stroma (toluidine blue staining) ([1]; ibrutinib 25 mg/Kg/day in drinking water, 4 weeks) | Amount of collagen in tumors (Picrosirius Red Staining) ([1]; ibrutinib 25 mg/Kg/day in drinking water, 4 weeks, compared to vehicle-treated animals) | CD11b positivity by immunohistochemistry ([1]; ibrutinib 25 mg/Kg/day in drinking water, 4 weeks, compared to vehicle-treated mice) | F4/80 positive macrophages (tumor-associated macrophages) by FACS analysis ([2]; FIG. 1C right panel) | CD11b+ cells by FACS analysis ([2]; percent of total cells, FIG. 1C left panel) | Collagen deposition / tissue fibrosis in tumor stroma (Picrosirius Red Staining) [3] | Survival, monotherapy vs vehicle control [4] | Systemic mast cell blocking (mast cell) |
| --- | --- | --- | --- | --- | --- | --- | --- | --- | --- | --- | --- |
| O=C(O)c1cc(=O)c2c(OCC(O)COc3cccc4oc(C(=O)O)cc(=O)c34)cccc2o1 [cromolyn, sodium cromoglycate, reference compound] | reduced collagen deposition | recapitulated the antifibrotic effect |  |  |  |  |  |  |  |  |  |
| C=CC(=O)N1CCC[C@@H](n2nc(-c3ccc(Oc4ccccc4)cc3)c3c(N)ncnc32)C1 [ibrutinib, (R)-1-(3-(4-amino-3-(4-phenoxyphenyl)-1H-pyrazolo[3,4-d]pyrimidin-1-yl)piperidin-1-yl)prop-2-en-1-one] |  |  | 14.9±7.0% and 14.9% | efficiently inhibited | reduced the amount of collagen | affected; also recorded: clear reduction of CD11b positivity | significant reduction | confirmed by FACS analysis | reduction in tissue fibrosis; also recorded: reduction of collagen deposition | significant survival advantage; also recorded: confers survival advantage | potent systemic mast cell blocker |
